Patent publication US4481191A, “Method for controlling blood pressure” (The Regents of the University of California, priority 1983, dated 1984)

Key:
[1] = test system: visceral afferent receptors; test: Sensitivity to morphine sulfate-induced bradycardia after subcutaneous pretreatment (FIG. 1); type: in vivo, rat; settings: rats; for effect of prior administration on sensitivity to morphine sulfate bradycardia (ED50 of morphine sulfate for greater than 10% fall in heart rate): subcutaneously 30 minutes before testing with morphine sulfate
Source text: Turning to FIG. 1, the ordinate thereof represents the ED50 of morphine sulfate for producing a greater than 10% fall in heart rate in rats, and serves as an index of the sensitivity of the animal to the drug. Morphine sulfate functions as a "challenge" drug for producing bradycardia, and is a traditional standard for comparison. Lower ED50 values mean that the visceral afferent receptors are more sensitive. The abscissa of FIG. 1 represents doses of dynorphin(1-13) and Leu-enkephalin, respectively, in units of micromoles per kg body weight administered subcutaneously 30 minutes before testing with morphine sulfate.
The experiments for which the data is illustrated by FIGS. 1 and 2 were conducted on male Sprague-Dawley rats weighing 250-350 g. Animals were kept under a 12-hour light-dark cycle with food and water available ad libitum. Each rat was used only once. Procedures of infusion of chemicals into the brain and for measurement of heart rate were as reported by Wei, et al., Life Science, supra, and Wei, J. Pharmacol. Exp. Ther. 21b: 12-18 (1981).
The median effective dose of drugs (ED50) for producing bradycardia was determined in animals anesthetized with 2.5% urethane solution in saline, administered 1.25 g/kg i.p. Drugs, dissolved in distilled water, were injected intravenously into a cannulated femoral vein in a volume of 0.05 ml/100 gm body weight delivered over a period of less than 3 seconds. The pH of the solutions ranged from 5.8 to 6.8 units. The blood pressure was obtained from the left cannulated carotid artery. A Narcobiosystems type 7302 cardiotachometer couple was used to integrate heart rate from the individual oscillations in blood pressure due to the heart beat, and heart rate was recorded on a polygraph recorder. The baseline heart rate (HR1) was defined as the lowest rate observed in the two minutes before drug administration. The magnitude of the change in heart rate was calculated as [(HR2 -HR1)/HR1 ]×100%, with the second heart rate (HR2) measured as the lowest rate observed in the three minutes after drug injection. […]

[2] = synthetic product; cited from earlier work
[3] = test system: mice; settings: studies with mice; cited from earlier work
[4] = test system: rats; settings: administered intravenously (i.v.); Wei et al., Life Sciences; cited from earlier work
[5] = test system: mouse vas deferens; settings: cited from earlier work
[6] = test system: guinea pig ileum; settings: cited from earlier work

Substance | effect of prior administration on sensitivity to morphine sulfate bradycardia (ED50 of morphine sulfate for greater than 10% fall in heart rate) [1] | median effective dose (ED50) for lowering of heart rate and blood pressure [4] [µmol/kg] | other results
dynorphin(1-13) | enhances sensitivity |  | activity in enhancing sensitivity relative to Leu-enkephalin ([1]; subcutaneously 30 minutes before morphine sulfate): about 5 times; potency in bioassays versus the naturally occurring peptide [2]: as potent in bioassays as the naturally occuring peptide; analgesia [3]: relatively weak in producing analgesia
methionine-enkephalin |  | 1.3 | 
beta-endorphin: endogenous opioid peptide |  | 0.07 | 
Leu-enkephalin | enhances sensitivity | 1.5 | 
Dynorphin |  |  | agonist properties [5]: potent agonist properties; agonist properties [6]: potent agonist properties
